We go through one compound from patent US9073885B2, “Vitamin D3 lactone derivatives” (Teijin Pharma Limited, priority 2003, dated 2015).

The test system of the test is HL-60 cells. In words: Vitamin D3 antagonist action: inhibition of HL-60 cell differentiation induced by 1α,25-dihydroxyvitamine D3 (NBT reducing activity). As to conditions: Homo sapiens, HL-60, 96 h, inhibition of NBT reducing activity induced by 1×10^-8 M 1α,25-dihydroxyvitamine D3, 4 days. It counts as cell-based. The text has this: The Vitamin D3 Antagonist Action Determined by Using the Induction of HL-60 Cell Differentiation by 1α,25-dihydroxyvitamine D3 as an Indicator
(1) HL-60 cells that were purchased from a cell bank (Japanese Cancer Research Resources Bank, Cell No. JCRB0085) were used. The cells were maintained as a frozen preservation stock to prevent changes in cellular characteristics by subculture. The stock was thawed before starting the experiment, and the cells which subsequently initiated subculture were used. The cells with subcultivation approximately over one month to a half year were used for the experiment. The subcultivation was performed by first centrifuging and collecting cells in suspension culture, and then diluting the collected cells by approximately a factor of 100 to a concentration of 1×10^4 to 2×10^4 cells/ml in a fresh culture medium. An RPMI-1640 medium with 10% fetal bovine serum was used as the culture medium. […]
(3) The induction of nitroblue tetrazolium (hereinafter referred to as NBT) reducing activity was used as an indicator of the induction of HL-60 cell differentiation. The NBT reducing activity was measured according to the procedures described below. […]

The structures appear in SMILES notation. pIC50: −log10 of the molar value.

Turning to `C=C1C(=O)OC(C[C@@H](C)[C@H]2CC[C@H]3/C(=C/C=C4/C[C@@H](O)C[C@H](O)C4=C)CCC[C@]23C)C1CCO` (stereo partly drawn) [Compound No. 114a, 20(R)-(tetrahydro-3-methylene-2-furanone-4-(2-hydroxyethyl)-5-yl)methyl-9,10-secopregna-5(Z),7(E),10(19)-triene-1α,3β-diol], the negative-log IC50 (pIC50) is greater than 8.00.
